Data published in patent US20120277211A1, “METHODS AND COMPOSITIONS FOR THE TREATMENT OF PSYCHOTIC DISORDERS THROUGH THE IDENTIFICATION OF THE SULT4A1-1 HAPLOTYPE” (priority 2009, published 2012).
Marks after values point to notes of the source that are not given here.

Tests used:
[1] = tested on: Caucasian schizophrenia patients; test: CATIE: hospitalization due to exacerbation of psychosis by SULT4A1-1 status; type: in vivo, human
From the text: To assess if SULT4A1-1 status impacts the risk of hospitalization in Caucasians, the inventors assigned SULT4A1-1 status to each CATIE subject and evaluated hospitalization events due to exacerbation of psychosis. For this analysis, the inventors assigned a dichotomous value (positive or negative) for hospitalization status to subjects in each phase of the trial based on only the first hospitalization event for a given patient in that phase. Patients participating in Phases 1, 2, and/or 3 were included in the totals for the appropriate drug.
A Kaplan-Meier survival analysis was performed to determine whether there was a difference between the survival (hospitalization) rates for the SULT4A1-1 negative and SULT4A1-1 positive patient populations treated with each of the atypical antipsychotics. Survival plots model the fraction of the population that survived (i.e., no hospitalization event) as a function of time.

[2] = tested on: Caucasian schizophrenia patients; test: CATIE Phase I: change in total PANSS (LOCF) by SULT4A1-1 haplotype status, Caucasians; type: in vivo, human; conditions: for Number of individuals with change in total PANSS ≦−20% (responders) / Number of individuals with change in total PANSS ≧−20% (non-responders) / Responders: CATIE Caucasians, LOCF; for Responders: change in PANSS ≦−20%; for Effect size: olanzapine SULT4A1-1+ vs comparator group / Mean difference (95% CI) in delta PANSS: olanzapine SULT4A1-1+ minus comparator group: comparator = labelled drug in SULT4A1-1+ patients
From the text: There are several different metrics for quantifying response in clinical trials of antipsychotic medications. The most commonly used psychometric instrument is the Positive and Negative Syndrome Scale (PANSS), a 30-item semi-quantitative instrument scored by clinical professionals (Kay et al., 1987). The greater the decrease in PANSS score, the better the clinical response. The most direct measure of clinical response is absolute change in PANSS score. In addition to absolute change, the improvement is often reported as a percentage change from baseline PANSS score.
A decrease of at least 20% in total PANSS is one commonly used threshold for response (Leucht et al., 2009).
The design of the CATIE study has been described in detail by others (Lieberman et al., 2005; Stroup et al., 2003). […] A total of 738 subjects consented to provide DNA for genetic study. […] Retrospective genetic analyses, judged to be exempt from human studies requirements by an IRB, were conducted in the current study.
All tested patients were studied using well established clinical endpoints comparing baseline, intermediate, and last observation carried forward (LOCF) for the PANSS scores using CATIE data. LOCF analysis is a commonly used clinical endpoint for clinical trials for neuropsychiatric drugs, with changes in PANSS scores of between negative 20% and negative 30% used as typical endpoints to indicate clinically significant response (Leucht et al., 2009). To remove time on drug as a variable for the CATIE trial, analysis was limited to only those patients who were randomized to a different drug following the initial washout period (drug switchers).
The CATIE clinical data set included baseline PANSS scores based on clinical assessments prior to initiation of the assigned therapy, but following the washout period for any patients previously on antipsychotic medication. Follow up PANSS data for the CATIE trial were collected at each visit as described in detail by others (Stroup et al., 2003).
Since follow-up on subjects was not done at uniform time intervals, analysis was done using the last observation for each patient in treatment Phase I of the trial as the measure of response (last observation carried forward, LOCF). Main effect and interaction terms between the SULT4A1-1 haplotype and drug therapy were included in the linear model. A pre-determined set of contrasts for differences in percent change PANSS by haplotype within each drug therapy (three comparisons) and by drug therapy within each haplotype (six comparisons) were evaluated, with adjustment for multiple-comparisons using the step-up false-discovery rate (FDR) controlling procedure (Benjamini and Hochberg, 1995). A sub-analysis omitting those patients who were randomized to the same antipsychotic drug therapy was also conducted.

[3] = tested on: African American schizophrenia patients; test: CATIE: change in total PANSS (LOCF) by SULT4A1-1 haplotype status, African Americans; type: in vivo, human; conditions: for Number of individuals with change in total PANSS ≦−20% (responders) / Number of individuals with change in total PANSS ≧−20% (non-responders): LOCF
Protocol: The design of the CATIE study has been described in detail by others (Lieberman et al., 2005; Stroup et al., 2003). […] A total of 738 subjects consented to provide DNA for genetic study. […] Retrospective genetic analyses, judged to be exempt from human studies requirements by an IRB, were conducted in the current study. All tested patients were studied using well established clinical endpoints comparing baseline, intermediate, and last observation carried forward (LOCF) for the PANSS scores using CATIE data. […] To remove time on drug as a variable for the CATIE trial, analysis was limited to only those patients who were randomized to a different drug following the initial washout period (drug switchers).

[4] = tested on: Caucasian schizophrenia patients; test: CATIE: time to discontinuation for all causes by SULT4A1-1 status; type: in vivo, human
From the text: The primary endpoint for the CATIE study was time to discontinuation for all causes (Lieberman et al., 2005). Thus the inventors evaluated the effect of SULT41-1 status on this important parameter.

[5] = tested on: schizophrenia patients; test: CATIE: months of successful treatment measured by the CGI scale (TMSUCC1); type: in vivo, human
From the text: The CATIE clinical data set included Clinical Global Impression (CGI) Scale, an observer-provided assessment of the psychiatric health of the patient (Stroup et al., 2003; Guy 1976). Patients are rated with the CGI Scale from 1 to 7, with higher scores indicating greater severity of illness. The CATIE study provided a response variable that measured the time (in months) of successful treatment as measured by the CGI scale (“TMSUCC1” in the CATIE data).

[6] = tested on: unsegmented patient populations; conditions: cited from earlier work
[7] = Unsegmented, Phases 1, 2 and/or 3, first event
[8] = SULT4A1-1 positive, randomized to a different drug

Row | Compound | HOSP, number of patients hospitalized ([1]; SULT4A1-1 negative) | HOSP, rate of hospitalization ([1]; SULT4A1-1 negative) | HOSP, number of patients hospitalized ([1]; SULT4A1-1 positive) | HOSP, rate of hospitalization ([1]; SULT4A1-1 positive) | HOSP, rate of hospitalization ([1]; Unsegmented) | HOSP, number of patients hospitalized [1, 7] | DELTA PANSS % (mean change in PANSS score from baseline to LOCF) ([2]; SULT4A1-1 negative) | Number of individuals with change in total PANSS ≦−20% (responders) ([2]; SULT4A1-1 negative) | Number of individuals with change in total PANSS ≧−20% (non-responders) ([2]; SULT4A1-1 negative) | Responders ([2]; SULT4A1-1 negative) | DELTA PANSS % (mean change in PANSS score from baseline to LOCF) ([2]; SULT4A1-1 positive) | Number of individuals with change in total PANSS ≧−20% (non-responders) ([2]; SULT4A1-1 positive) | Number of individuals with change in total PANSS ≦−20% (responders) [2, 8] | Responders ([2]; SULT4A1-1 positive) | Effect size: olanzapine SULT4A1-1+ vs comparator group [2] | Mean difference (95% CI) in delta PANSS: olanzapine SULT4A1-1+ minus comparator group [2] | Responders ([3]; SULT4A1-1 negative) | Number of individuals with change in total PANSS ≦−20% (responders) ([3]; SULT4A1-1 negative) | Number of individuals with change in total PANSS ≧−20% (non-responders) ([3]; SULT4A1-1 negative) | Responders ([3]; SULT4A1-1 positive) | other results
1 | O=C1Cc2cc(CCN3CCN(c4nsc5ccccc45)CC3)c(Cl)cc2N1 [Ziprasidone] | 11 | 13.4% | 2 | 7.1% | 11.8% | 13 | −4*** % | 6 | 32 | 15.7%** | −8* % | 7 | 3 | 30.0% | 0.77 | −16.1 (−32.7 to 0.5) | 15.4% | 4 | 22 | 0% | Kaplan-Meier: difference between survival (no hospitalization) rates of SULT4A1-1 negative and positive patients ([1]; per drug): not statistically significant; Mean difference in total PANSS score between olanzapine and labelled drug, CATIE SULT4A1-1+ ([2]; SULT4A1-1+): −17.9; Mean difference in total PANSS score between olanzapine and labelled drug, CATIE SULT4A1-1− ([2]; SULT4A1-1−): −2.1; Mean difference in total PANSS score between olanzapine and labelled drug, CATIE unsegmented ([2]; Unsegmented): −4.9; Effect Size attributable to SULT4A1-1 status in CATIE ([2]; olanzapine-treated SULT4A1-1 positive versus labelled drug-treated SULT4A1-1 positive): −0.77^b; Number of individuals with change in total PANSS ≦−20% (responders) ([3]; SULT4A1-1 positive): 0; Number of individuals with change in total PANSS ≧−20% (non-responders) ([3]; SULT4A1-1 positive): 3; Time to discontinuation, mean ([4]; SULT4A1-1 negative): 8.2*** Months; Time to discontinuation, mean ([4]; SULT4A1-1 positive): 11.7 Months; Length of successful treatment (CGI Months), Mean ([5]; SULT4A1-1 negative): 4.51 Months; Length of successful treatment (CGI Months), Mean ([5]; SULT4A1-1 positive): 8.36^d Months; Length of successful treatment (CGI Months), Mean ([5]; Unsegmented): 5.36 Months; Effect Size vs. FGA ([6]; first generation antipsychotics, Davis et al. (2003)): −0.04; Effect Size vs. Placebo ([6]; meta-analysis, Leucht et al. (2009), negative = greater reduction in PANSS): −0.48; Mean difference in total PANSS score between olanzapine and labelled drug, Meta-analysis ([6]; unsegmented populations, Leucht et al. (2009)): −8.3
2 | OCCN1CCN(CCCN2c3ccccc3Sc3ccc(Cl)cc32)CC1 [Perphenazine] | 9 | 13.4% | 1 | 7.1% | 12.3% | 10 | −3*** % | 16 | 47 | 25.4%** | −10* % | 9 | 5 | 35.7% | 0.68 | −14.2 (−29.8 to 1.4) | 27.0% | 10 | 27 | 0% | Number of individuals with change in total PANSS ≦−20% (responders) ([3]; SULT4A1-1 positive): 0; Number of individuals with change in total PANSS ≧−20% (non-responders) ([3]; SULT4A1-1 positive): 2; Time to discontinuation, mean ([4]; SULT4A1-1 negative): 10.6* Months; Time to discontinuation, mean ([4]; SULT4A1-1 positive): 7.6** Months; Length of successful treatment (CGI Months), Mean ([5]; SULT4A1-1 negative): 7.03 Months; Length of successful treatment (CGI Months), Mean ([5]; SULT4A1-1 positive): 5.29 Months; Length of successful treatment (CGI Months), Mean ([5]; Unsegmented): 6.72 Months
